Test system: Hedgehog pathway activity
Assay: Shh-Light luciferase reporter assay of Hedgehog pathway activity (Shh-Light2 cells, SAG-stimulated)
Format: cell-based
Details: for activity at 2 µM: 2 μM compound, read-out: SHH-light % residual @ 2 μM; for activity at 2 µM / activity at 20 µM: SAG 500 nM; for activity at 20 µM: 20 μM compound, read-out: SHH-light % residual @ 20 μM; for IC50: Table 2, SAG 500 nM, 28-32 hr treatment, read-out: Shh-light IC50
Experimental: To examine the inhibition of dynein 2 in cell-based assays, an established luciferase reporter-based cellular assay of Hedgehog pathway activity was employed [Taipale et al., Nature. 2000; 406(6799): 1005-9]. Signaling in this pathway depends on the function of dynein 2. In this setting, expression of luciferase driven by Hedgehog pathway activity was inhibited by compound 5 with an IC50 value of 0.9±0.5 μM. […] The potencies of these compounds in this cell-based assay match the rank-order of dynein 2 inhibition in vitro. In these assays, Hedgehog pathway activity was stimulated using the Synthetic Agonist of Smoothened (SAG). This compound competes with many Hedgehog pathway inhibitors for binding to Smoothened, a key node in the signaling pathway.
SHH-Light Assay (Steinman et al. eLife 2017; 6:e25174.)
NIH-3T3 cells stably expressing a luciferase reporter downstream of a Gli binding site (Shh-Light2 cells, RRID: CVCL_2721) were maintained in DMEM with 10% bovine calf serum (BCS). Cells were seeded at a density of 30,000 cells/well in 96-well tissue culture-treated plates (Corning, cat #353072) in 100 μL in DMEM+10% BCS, and incubated for 48 hr (Taipale et al., 2000). Wells were washed briefly with PBS. Next […] of low serum media (DMEM+0.5% BCS) containing smoothened agonist (SAG, 500 nM), and either solvent control (0.2% DMSO) or test compound (serial three-fold dilutions of each inhibitor starting from 20 μM) were added to the wells. After 28-32 hr of inhibitor treatment, cells were washed with 50 μL PBS and lysed for >30 min in 30 μL Passive Lysis Buffer (Promega Dual Luciferase kit, cat E1910). 5 uL of each lysate was transferred to white, solid-bottom 96-well plates (Greiner, cat #655075), followed by rapid addition (within 30 s) of 30 μL of Luciferase Assay Reagent using a multichannel pipette. Luminescence for each condition was read using a Synergy Neo plate reader (5 s integration time per well). Cell line identity was confirmed by measurement of the degree of response to Hedgehog pathway stimulation by the synthetic agonist SAG and using previously published values from our groups and others as references (Firestone et al., 2012; Hyman et al., 2009).

Row | IC50 | Structure (SMILES) | activity at 2 µM | activity at 20 µM
1 | 730 nM | N#Cc1c(C2(c3ccc(Cl)cc3)CC2)nn2c(=O)c3cc(C(F)(F)F)ccc3[nH]c12 [Example 11, 2-[1-(4-Chlorophenyl)cyclopropyl]-9-oxo-7-(trifluoromethyl)-4H-pyrazolo[5,1-b]quinazoline-3-carbonitrile] | 17.7% | -4.1%
2 | 340 nM | N#Cc1c(C2CCC(c3ccc(Cl)cc3)CC2)nn2c(=O)c3cc(C4CC4)ccc3[nH]c12 (stereo not drawn) [Example 13, 2-[4-(4-Chlorophenyl)cyclohexyl]-7-cyclopropyl-9-oxo-4H-pyrazolo[5,1-b]quinazoline-3-carbonitrile] | -3.1% | -3.6%
3 | 470 nM | N#Cc1c(C2(c3ccc(Cl)cc3)CC2)nn2c(=O)c3cc(C4CC4)ccc3[nH]c12 [Example 14, 2-[1-(4-Chlorophenyl)cyclopropyl]-7-cyclopropyl-9-oxo-4H-pyrazolo[5,1-b]quinazoline-3-carbonitrile] | -2.3% | -1.8%
4 | 600 nM | N#Cc1c(C2CCC(c3ccc(Cl)cc3)CC2)nn2c(=O)c3cc(Cl)ccc3[nH]c12 (stereo not drawn) [Example 17, 7-Chloro-2-[4-(4-chlorophenyl)cyclohexyl]-9-oxo-4H-pyrazolo[5,1-b]quinazoline-3-carbonitrile] | -2.3% | -3.9%
5 | 760 nM | N#Cc1c(C2(c3ccc(Cl)cc3)CC2)nn2c(=O)c3cc(Cl)ccc3[nH]c12 [Example 18, 7-Chloro-2-[1-(4-chlorophenyl)cyclopropyl]-9-oxo-4H-pyrazolo[5,1-b]quinazoline-3-carbonitrile] | -0.5% | 2.8%
6 | 1600 nM | N#Cc1c(C2(c3ccc(Cl)cc3)CC2)nn2c(=O)c3cc(F)ccc3[nH]c12 [Example 19, 2-[1-(4-Chlorophenyl)cyclopropyl]-7-fluoro-9-oxo-4H-pyrazolo[5,1-b]quinazoline-3-carbonitrile] | 1.4% | -0.4%
7 | 330 nM | N#Cc1c(N2CCC(c3ccc(Cl)cc3)CC2)nn2c(=O)c3cc(Cl)ccc3[nH]c12 [Example 20, 7-Chloro-2-[4-(4-chlorophenyl)-1-piperidyl]-9-oxo-4H-pyrazolo[5,1-b]quinazoline-3-carbonitrile] | -2.5% | -3.1%
8 | 670 nM | N#Cc1c(C2CCC(c3ccc(Cl)cc3)CC2)nn2c(=O)c3cc(Br)ccc3[nH]c12 (stereo not drawn) [Example 22, 7-Bromo-2-[4-(4-chlorophenyl)cyclohexyl]-9-oxo-4H-pyrazolo[5,1-b]quinazoline-3-carbonitrile] | -2.9% | -2.8%
9 | 2000 nM | N#Cc1c(-c2ccc(Cl)cc2Cl)nn2c(=O)c3ccccc3[nH]c12 [Example 33, 2-(2,4-Dichlorophenyl)-9-oxo-4H-pyrazolo[5,1-b]quinazoline-3-carbonitrile] |  | -3.6%
10 | 3600 nM | NC(=O)c1c(-c2ccc(Cl)cc2Cl)nn2c(=O)c3ccc(Cl)cc3[nH]c12 [Example 34, 6-Chloro-2-(2,4-dichlorophenyl)-9-oxo-4H-pyrazolo[5,1-b]quinazoline-3-carboxamide] |  | -3.4%
11 | 2100 nM | N#Cc1c(-c2ccc(Cl)cc2Cl)nn2c(=O)c3ccc(Cl)cc3[nH]c12 [Example 35, 6-Chloro-2-(2,4-dichlorophenyl)-9-oxo-4H-pyrazolo[5,1-b]quinazoline-3-carbonitrile] |  | 
12 | 10000 nM | COc1cccc2c(=O)n3nc(-c4ccc(Cl)cc4Cl)c(C#N)c3[nH]c12 [Example 36, 2-(2,4-Dichlorophenyl)-5-methoxy-9-oxo-4H-pyrazolo[5,1-b]quinazoline-3-carbonitrile] |  | 
13 | 2000 nM | COc1c(Cl)ccc2c(=O)n3nc(-c4ccc(Cl)cc4Cl)c(C#N)c3[nH]c12 [Example 38, 6-Chloro-2-(2,4-dichlorophenyl)-5-methoxy-9-oxo-4H-pyrazolo[5,1-b]quinazoline-3-carbonitrile] | 74% | 19%
14 | 13000 nM | COc1ccc2[nH]c3c(C(N)=O)c(-c4ccc(Cl)cc4Cl)nn3c(=O)c2c1 [Example 39, 2-(2,4-Dichlorophenyl)-7-methoxy-9-oxo-4H-pyrazolo[5,1-b]quinazoline-3-carboxamide] |  | 121%
15 | 594 nM | COc1ccc2[nH]c3c(C#N)c(-c4ccc(Cl)cc4Cl)nn3c(=O)c2c1 [Example 40, 2-(2,4-Dichlorophenyl)-7-methoxy-9-oxo-4H-pyrazolo[5,1-b]quinazoline-3-carbonitrile] | 37% | 14%

Continued, compound first:

Row | Structure (SMILES) | IC50 | activity at 2 µM | activity at 20 µM
16 | N#Cc1ccc2[nH]c3c(C#N)c(C4(c5ccc(Cl)cc5)CC4)nn3c(=O)c2c1 [Example 10, 2-[1-(4-Chlorophenyl)cyclopropyl]-9-oxo-4H-pyrazolo[5,1-b]quinazoline-3,7-dicarbonitrile] |  | 70.1% | 10%
17 | N#Cc1c(C2CCC(c3ccc(Cl)cc3)CC2)nn2c(=O)c3cc(C(F)(F)F)ccc3[nH]c12 (stereo not drawn) [Example 15, 2-[4-(4-Chlorophenyl)cyclohexyl]-9-oxo-7-(trifluoromethyl)-4H-pyrazolo[5,1-b]quinazoline-3-carbonitrile] | 320 nM | -3.1% | -4%
18 | N#Cc1c(C2CCN(c3ccc(Cl)cc3)CC2)nn2c(=O)c3cc(C(F)(F)F)ccc3[nH]c12 [Example 16, 2-[1-(4-Chlorophenyl)-4-piperidyl]-9-oxo-7-(trifluoromethyl)-4H-pyrazolo[5,1-b]quinazoline-3-carbonitrile] |  | 33.7% | -4.1%
19 | N#Cc1c(C2CCN(c3ccc(Cl)cc3)CC2)nn2c(=O)c3cc(Cl)ccc3[nH]c12 [Example 21, 7-Chloro-2-[1-(4-chlorophenyl)-4-piperidyl]-9-oxo-4H-pyrazolo[5,1-b]quinazoline-3-carbonitrile] |  | -2% | -2.6%
20 | N#Cc1c(OC2CCN(c3ncc(Cl)cn3)CC2)nn2c(=O)c3cc(Cl)ccc3[nH]c12 [Example 23, 7-Chloro-2-[[1-(5-chloropyrimidin-2-yl)-4-piperidyl]oxy]-9-oxo-4H-pyrazolo[5,1-b]quinazoline-3-carbonitrile] |  | 8.2% | -2.9%
21 | N#Cc1c(OC2CCN(C(=O)c3ccc(Cl)cc3)CC2)nn2c(=O)c3cc(Cl)ccc3[nH]c12 [Example 24, 7-Chloro-2-[[1-(4-chlorobenzoyl)-4-piperidyl]oxy]-9-oxo-4H-pyrazolo[5,1-b]quinazoline-3-carbonitrile] |  | 72.4% | 1.6%
22 | N#Cc1c(OC2CCN(c3ccc(Cl)cn3)CC2)nn2c(=O)c3cc(Cl)ccc3[nH]c12 [Example 25, 7-Chloro-2-[[1-(5-chloro-2-pyridyl)-4-piperidyl]oxy]-9-oxo-4H-pyrazolo[5,1-b]quinazoline-3-carbonitrile] |  | 41.7% | -3.8%
23 | NC(=O)c1c(C2CCC(c3ccc(Cl)cc3)CC2)nn2c(=O)c3ccccc3[nH]c12 (stereo not drawn) [Example 26, 2-[4-(4-Chlorophenyl)cyclohexyl]-9-oxo-4H-pyrazolo[5,1-b]quinazoline-3-carboxamide] |  | 68.8% | -4.5%
24 | NC(=O)c1c(CCCOc2ccc(Cl)cc2)nn2c(=O)c3ccccc3[nH]c12 [Example 28, 2-[3-(4-Chlorophenoxy)propyl]-9-oxo-4H-pyrazolo[5,1-b]quinazoline-3-carboxamide] |  | 68.9% | 40.3%
25 | NC(=O)c1c(C2(c3ccc(Cl)cc3)CC2)nn2c(=O)c3ccccc3[nH]c12 [Example 30, 2-[1-(4-Chlorophenyl)cyclopropyl]-9-oxo-4H-pyrazolo[5,1-b]quinazoline-3-carboxamide] |  | 101% | 22.1%
26 | NC(=O)c1c(-c2ccc(Cl)cc2Cl)nn2c(=O)c3ccccc3[nH]c12 [Example 32, 2-(2,4-Dichlorophenyl)-9-oxo-4H-pyrazolo[5,1-b]quinazoline-3-carboxamide] |  |  | 57.5%
27 | COc1cccc2[nH]c3c(C#N)c(-c4ccc(Cl)cc4Cl)nn3c(=O)c12 [Example 37, 2-(2,4-Dichlorophenyl)-8-methoxy-9-oxo-4H-pyrazolo[5,1-b]quinazoline-3-carbonitrile] |  | 100% | 18%
28 | NC(=O)c1c(COc2ccc(Cl)cc2)nn2c(=O)c3ccccc3[nH]c12 [Example 41, 2-[(4-Chlorophenoxy)methyl]-9-oxo-4H-pyrazolo[5,1-b]quinazoline-3-carboxamide] |  | 73.7% | 
